From patent USRE40086E1, “Method for treating bacterial infection with novel 7-substituted-9-substituted amino 6-demethyl-6-deoxytetracyclines” (Wyeth Holdings Corporation, priority 1991, dated 2008)

Key:
[1] = test system: S. aureus UBMS 88-5 (tetM); assay: MIC, agar dilution; type: cell-based; settings: S. aureus UBMS 88-5 TetM; Table IA; unit assumed
[2] = test system: S. aureus UBMS 88-4 (Sensitive); assay: MIC, agar dilution; type: cell-based; settings: S. aureus UBMS 88-4; Table IA; unit assumed
[3] = test system: S. aureus UBMS 90-1 (tetM); assay: MIC, agar dilution; type: cell-based; settings: S. aureus UBMS 90-1 TetM; Table IA; unit assumed
[4] = test system: S. aureus UBMS 90-2 (tetM); assay: MIC, agar dilution; type: cell-based; settings: S. aureus UBMS 90-2 TetM; Table IA; unit assumed
[5] = test system: S. aureus UBMS 90-3 (Sensitive); assay: MIC, agar dilution; type: cell-based; settings: S. aureus UBMS 90-3; Table IA; unit assumed
[6] = test system: S. aureus UBMS 88-7 (tetK); assay: MIC, agar dilution; type: cell-based; settings: S. aureus UBMS 88-7 TetK; Table IA; unit assumed
[7] = test system: S. aureus IVES 2943 (meth. resistant); assay: MIC, agar dilution; type: cell-based; settings: S. aureus IVES 2943; Table IA; unit assumed
[8] = test system: S. aureus IVES 1983 (meth. resistant); assay: MIC, agar dilution; type: cell-based; settings: S. aureus IVES 1983; Table IA; unit assumed
[9] = test system: S. aureus ATCC 29213 (Sensitive); assay: MIC, agar dilution; type: cell-based; settings: S. aureus ATCC 29213; Table IA; unit assumed
[10] = test system: S. aureus Smith (Sensitive); assay: MIC, agar dilution; type: cell-based; settings: S. aureus SMITH (MP); Table IA; unit assumed
[11] = test system: S. haemolyticus AVAH 88-3; assay: MIC, agar dilution; type: cell-based; settings: S. hemolyticus AVHAH 88-3; Table IA; unit assumed
E. faecalis 12201 = assay: MIC, agar dilution; type: cell-based; settings: Enterococcus 12201; Table IA; unit assumed
E. faecalis ATCC 29212 = assay: MIC, agar dilution; type: cell-based; settings: E. faecalis ATCC 29212; Table IA; unit assumed
E. coli UBMS 88-1 (tetB) = assay: MIC, agar dilution; type: cell-based; settings: E. coli UBMS 88-1 TetB; Table IA; unit assumed
E. coli UBMS 89-1 (tetM) = assay: MIC, agar dilution; type: cell-based; settings: E. coli UBMS 89-1 TetM; Table IA; unit assumed
[12] = test system: E. coli UBMS 89-2 (Sensitive); assay: MIC, agar dilution; type: cell-based; settings: E. coli UBMS 89-2 Tet Sens.; Table IA; unit assumed
E. coli ATCC 25922 = assay: MIC, agar dilution; type: cell-based; settings: E. coli ATCC 25922; Table IA; unit assumed
E. coli UBMS 90-4 (tetM) = assay: MIC, agar dilution; type: cell-based; settings: E. coli UBMS 90-4 TetM; Table IA; unit assumed
E. coli J3272 Tet sens. = assay: MIC, agar dilution (Table IA); type: cell-based; settings: unit assumed
E. coli MC4100 TetB = assay: MIC, agar dilution (Table IA); type: cell-based; settings: unit assumed
E. coli PRP1 TetA = assay: MIC, agar dilution (Table IA); type: cell-based; settings: unit assumed
E. coli J3272 TetC = assay: MIC, agar dilution (Table IA); type: cell-based; settings: unit assumed
E. coli J2175 = assay: MIC, agar dilution (Table IA); type: cell-based; settings: unit assumed
E. coli BAJ9003 = assay: MIC, agar dilution (Table IA); type: cell-based; settings: unit assumed
E. coli UBMS 90-5 = assay: MIC, agar dilution (Table IA); type: cell-based; settings: unit assumed
E. coli #311 (MP) = assay: MIC, agar dilution (Table IA); type: cell-based; settings: unit assumed
E. coli J3272 TetD = assay: MIC, agar dilution (Table IA); type: cell-based; settings: unit assumed
S. mariescens FDOR 8733 = assay: MIC, agar dilution (Table IA); type: cell-based; settings: unit assumed
[13] = test system: X. maltophilia NEMC 87210; assay: MIC, agar dilution (Table IA); type: cell-based; settings: unit assumed
[14] = test system: Ps. acruginosa ATCC 27853; assay: MIC, agar dilution (Table IA); type: cell-based; settings: unit assumed
S. aureus NEMC 8769/89-4 = assay: MIC, agar dilution (Table IA); type: cell-based; settings: unit assumed
S. aureus ROSE (MP) = assay: MIC, agar dilution (Table IA); type: cell-based; settings: unit assumed
[15] = test system: Wild Type S30 extract, E. coli strain MRE600 (tetracycline sensitive); assay: E. coli in vitro transcription and protein translation, 35S-methionine incorporation (Table VIII)
[16] = test system: TetM S30 extract, derivative of E. coli MRE600 containing the tetM determinant; assay: as above

Row | Structure (SMILES) | Antibacterial activity (MIC) [1] [µg/mL] | Antibacterial activity (MIC) [2] [µg/mL] | Antibacterial activity (MIC) [3] [µg/mL] | Antibacterial activity (MIC) [4] [µg/mL] | Antibacterial activity (MIC) [5] [µg/mL] | Antibacterial activity (MIC) [6] [µg/mL] | Antibacterial activity (MIC) [7] [µg/mL] | Antibacterial activity (MIC) [8] [µg/mL] | Antibacterial activity (MIC) [9] [µg/mL] | Antibacterial activity (MIC) [10] [µg/mL] | Antibacterial activity (MIC) [11] [µg/mL] | Antibacterial activity (MIC) (E. faecalis 12201) [µg/mL] | Antibacterial activity (MIC) (E. faecalis ATCC 29212) [µg/mL] | Antibacterial activity (MIC) (E. coli UBMS 88-1 (tetB)) [µg/mL] | Antibacterial activity (MIC) (E. coli UBMS 89-1 (tetM)) [µg/mL] | Antibacterial activity (MIC) [12] [µg/mL] | Antibacterial activity (MIC) (E. coli ATCC 25922) [µg/mL] | Antibacterial activity (MIC) (E. coli J3272 Tet sens.) [µg/mL] | Antibacterial activity (MIC) (E. coli MC4100 TetB) [µg/mL] | Antibacterial activity (MIC) (E. coli PRP1 TetA) [µg/mL] | further results
1 | CN(C)c1cc(NC(=O)CNC2CC2)c(O)c2c1CC1CC3C(N(C)C)C(O)=C(C(N)=O)C(=O)C3(O)C(O)=C1C2=O.Cl.Cl (stereo not drawn) [QQ, [4S-(4alpha,12aalpha))-9[[(Cyclopropylamino)acetyl)amino]-4,7-Bis(dimethylamino)-1,4,4a,5,5a,6,11,12a-octahydro-3,10,12,12a-tetrahydroxy-1,11-dioxo-2-naphthacenecarboxamide dihydrochloride] | 0.5 | 0.5 | 0.5 | 0.5 | 0.5 | 4 | 16 | 8 | 0.5 | 0.25 | 2 | 0.5 | 0.25 | 4 | 1 | 2 | 2 | 2 | 2 | 32 | Antibacterial activity (MIC) (E. coli UBMS 90-4 (tetM)): 2 µg/mL; Antibacterial activity (MIC) (E. coli J3272 TetC): 8 µg/mL; Antibacterial activity (MIC) (E. coli J2175): 2 µg/mL; Antibacterial activity (MIC) (E. coli BAJ9003): 0.25 µg/mL; Antibacterial activity (MIC) (E. coli UBMS 90-5): 2 µg/mL; Antibacterial activity (MIC) (E. coli #311 (MP)): 2 µg/mL; Antibacterial activity (MIC) (E. coli J3272 TetD): 2 µg/mL; Antibacterial activity (MIC) (S. mariescens FDOR 8733): > 32 µg/mL; Antibacterial activity (MIC) [13]: 2 µg/mL; Antibacterial activity (MIC) [14]: > 32 µg/mL; Antibacterial activity (MIC) (S. aureus NEMC 8769/89-4): 0.12 µg/mL; Antibacterial activity (MIC) (S. aureus ROSE (MP)): 16 µg/mL; % INHIBITION Wild Type S30 ([15]; 0.06 mg/ml): 92%; % INHIBITION Wild Type S30 ([15]; 0.2 mg/ml): 97%; % INHIBITION Wild Type S30 ([15]; 1.0 mg/ml): 99%; % INHIBITION TetM S30 ([16]; 0.06 mg/ml): 85%; % INHIBITION TetM S30 ([16]; 0.2 mg/ml): 95%; % INHIBITION TetM S30 ([16]; 1.0 mg/ml): 99%
2 | CNCC(=O)Nc1cc(N(C)C)c2c(c1O)C(=O)C1=C(O)[C@]3(O)C(=O)C(C(N)=O)=C(O)[C@@H](N(C)C)C3CC1C2.Cl.Cl (stereo partly drawn) [MM, [4S-(4alpha,12aalpha)]-4,7-Bis(dimethylamino)-1,4,4a,5,5a,6,11,12a-octahydro-3,10,12,12a-tetrahydroxy-9-[[(methylamino)acetyl]amino]-1,11-dioxo-2-naphthacenecarboxamide dihydrochloride] | 0.5 | 0.5 | 1 | 0.5 | 0.5 | 16 | 32 | 16 | 1 | 0.5 | 1 | 0.25 | 0.25 | 1 | 1 | 1 | 1 | 1 | 1 | 16 | Antibacterial activity (MIC) (E. coli J3272 TetC): 8 µg/mL; Antibacterial activity (MIC) (E. coli J2175): 1 µg/mL; Antibacterial activity (MIC) (E. coli BAJ9003): 0.25 µg/mL; Antibacterial activity (MIC) (E. coli UBMS 90-5): 1 µg/mL; Antibacterial activity (MIC) (E. coli #311 (MP)): 1 µg/mL; Antibacterial activity (MIC) (E. coli J3272 TetD): 0.05 µg/mL; Antibacterial activity (MIC) (S. mariescens FDOR 8733): 16 µg/mL; Antibacterial activity (MIC) [13]: 8 µg/mL; Antibacterial activity (MIC) [14]: 16 µg/mL; Antibacterial activity (MIC) (S. aureus NEMC 8769/89-4): 0.5 µg/mL; Antibacterial activity (MIC) (S. aureus ROSE (MP)): 32 µg/mL; % INHIBITION Wild Type S30 ([15]; 0.06 mg/ml): 95%; % INHIBITION Wild Type S30 ([15]; 0.2 mg/ml): 98%; % INHIBITION Wild Type S30 ([15]; 1.0 mg/ml): 99%; % INHIBITION TetM S30 ([16]; 0.06 mg/ml): 92%; % INHIBITION TetM S30 ([16]; 0.2 mg/ml): 97%; % INHIBITION TetM S30 ([16]; 1.0 mg/ml): 99%
3 | CN(C)c1cc(NC(=O)CN2CCCCC2)c(O)c2c1CC1CC3C(N(C)C)C(O)=C(C(N)=O)C(=O)C3(O)C(O)=C1C2=O.Cl.Cl (stereo not drawn) [UU, [7S-(7alpha,10aalpha)]-N-[9-(Aminocarbonyl)-4,7-bis(dimethylamino)-5,5a,6,6a,7,10,10a,12-octahydro-1,8,10a,11-tetrahydroxy-10,12-dioxo-2-naphthacenyl)-1-piperidineacetamide dihydrochloride] | 0.25 | 0.25 | 0.25 | 0.12 | 0.12 | 0.25 | 0.25 | 0.5 | 0.12 | 0.12 | 0.12 | 0.12 | 0.06 | 0.5 | 0.12 | 0.5 | 0.25 | 0.5 | 0.5 | 1 | Antibacterial activity (MIC) (E. coli UBMS 90-4 (tetM)): 0.5 µg/mL; Antibacterial activity (MIC) (E. coli J3272 TetC): 0.5 µg/mL; Antibacterial activity (MIC) (E. coli J2175): 0.5 µg/mL; Antibacterial activity (MIC) (E. coli BAJ9003): 0.06 µg/mL; Antibacterial activity (MIC) (E. coli UBMS 90-5): 0.5 µg/mL; Antibacterial activity (MIC) (E. coli #311 (MP)): 0.25 µg/mL; Antibacterial activity (MIC) (E. coli J3272 TetD): 0.25 µg/mL; Antibacterial activity (MIC) (S. mariescens FDOR 8733): 4 µg/mL; Antibacterial activity (MIC) [13]: 0.12 µg/mL; Antibacterial activity (MIC) [14]: 32 µg/mL; Antibacterial activity (MIC) (S. aureus NEMC 8769/89-4): 0.06 µg/mL; Antibacterial activity (MIC) (S. aureus ROSE (MP)): 0.5 µg/mL
